For one compound, inhibition results are on record in ChEMBL document CHEMBL4043168, “The design and SAR of a novel series of 2-aminopyridine based LRRK2 inhibitors” (Bioorg Med Chem Lett, 2017).

The target in test [1] is T1, Inhibitor of nuclear factor kappa-B kinase subunit epsilon (Homo sapiens) (UniProt Q14164).
T1 sequence (whole entry): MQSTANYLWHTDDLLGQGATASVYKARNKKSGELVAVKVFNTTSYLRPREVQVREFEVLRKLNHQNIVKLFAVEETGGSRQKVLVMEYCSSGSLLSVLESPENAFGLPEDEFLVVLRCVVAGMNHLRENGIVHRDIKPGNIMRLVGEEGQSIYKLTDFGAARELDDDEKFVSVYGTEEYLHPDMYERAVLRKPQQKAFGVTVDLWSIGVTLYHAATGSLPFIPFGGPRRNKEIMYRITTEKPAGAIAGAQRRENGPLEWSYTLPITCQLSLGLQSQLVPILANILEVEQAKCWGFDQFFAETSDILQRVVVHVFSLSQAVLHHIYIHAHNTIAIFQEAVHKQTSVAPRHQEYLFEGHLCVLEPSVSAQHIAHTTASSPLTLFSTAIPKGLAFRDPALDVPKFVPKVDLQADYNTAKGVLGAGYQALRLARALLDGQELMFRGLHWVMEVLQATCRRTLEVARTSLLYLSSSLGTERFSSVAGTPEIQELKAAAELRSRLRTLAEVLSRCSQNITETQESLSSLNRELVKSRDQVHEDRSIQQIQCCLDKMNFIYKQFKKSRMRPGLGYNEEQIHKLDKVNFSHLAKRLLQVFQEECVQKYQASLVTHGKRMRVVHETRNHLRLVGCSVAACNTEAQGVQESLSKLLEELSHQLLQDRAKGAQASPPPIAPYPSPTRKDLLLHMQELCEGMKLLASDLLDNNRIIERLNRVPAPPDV
The test can be described thus: Inhibition of IKKe conserved Lys2 (DIKPGNIMR) in human PBMC at 1 uM.

Test [2] addresses T2, Interleukin-1 receptor-associated kinase 4 (Homo sapiens) (UniProt Q9NWZ3).
T2 sequence (whole entry): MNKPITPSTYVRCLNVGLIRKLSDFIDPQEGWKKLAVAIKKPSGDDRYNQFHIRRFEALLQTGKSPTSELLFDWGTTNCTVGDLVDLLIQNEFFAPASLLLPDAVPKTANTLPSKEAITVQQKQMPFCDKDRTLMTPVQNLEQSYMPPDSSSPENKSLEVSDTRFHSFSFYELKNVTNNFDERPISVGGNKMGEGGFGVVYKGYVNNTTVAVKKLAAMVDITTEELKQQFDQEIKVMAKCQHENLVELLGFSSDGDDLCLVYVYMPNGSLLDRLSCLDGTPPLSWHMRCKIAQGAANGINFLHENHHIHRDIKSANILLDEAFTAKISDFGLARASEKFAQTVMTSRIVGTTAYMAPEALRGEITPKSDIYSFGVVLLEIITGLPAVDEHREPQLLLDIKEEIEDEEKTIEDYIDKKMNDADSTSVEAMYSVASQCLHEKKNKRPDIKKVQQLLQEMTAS
The test can be described thus: Inhibition of IRAK4 conserved Lys1 (GYVNNTTVAVKK) in human PBMC at 1 uM.

Test [3] addresses Ribosomal protein S6 kinase alpha-1 (Homo sapiens) (UniProt Q15418). The test can be described thus: Inhibition of RSK1 domain2 conserved Lys2 (DLKPSNILYVDESGNPECLR) in human PBMC at 1 uM.
Test [4] has as its target Serine/threonine-protein kinase SIK2 (Homo sapiens) (UniProt Q9H0K1). The test can be described thus: Inhibition of QIK conserved Lys1 (EVAIKIIDK) in human PBMC at 0.1 uM.
Test [5] deals with T3, Serine/threonine-protein kinase LATS1 (Homo sapiens) (UniProt O95835).
T3 sequence (whole entry): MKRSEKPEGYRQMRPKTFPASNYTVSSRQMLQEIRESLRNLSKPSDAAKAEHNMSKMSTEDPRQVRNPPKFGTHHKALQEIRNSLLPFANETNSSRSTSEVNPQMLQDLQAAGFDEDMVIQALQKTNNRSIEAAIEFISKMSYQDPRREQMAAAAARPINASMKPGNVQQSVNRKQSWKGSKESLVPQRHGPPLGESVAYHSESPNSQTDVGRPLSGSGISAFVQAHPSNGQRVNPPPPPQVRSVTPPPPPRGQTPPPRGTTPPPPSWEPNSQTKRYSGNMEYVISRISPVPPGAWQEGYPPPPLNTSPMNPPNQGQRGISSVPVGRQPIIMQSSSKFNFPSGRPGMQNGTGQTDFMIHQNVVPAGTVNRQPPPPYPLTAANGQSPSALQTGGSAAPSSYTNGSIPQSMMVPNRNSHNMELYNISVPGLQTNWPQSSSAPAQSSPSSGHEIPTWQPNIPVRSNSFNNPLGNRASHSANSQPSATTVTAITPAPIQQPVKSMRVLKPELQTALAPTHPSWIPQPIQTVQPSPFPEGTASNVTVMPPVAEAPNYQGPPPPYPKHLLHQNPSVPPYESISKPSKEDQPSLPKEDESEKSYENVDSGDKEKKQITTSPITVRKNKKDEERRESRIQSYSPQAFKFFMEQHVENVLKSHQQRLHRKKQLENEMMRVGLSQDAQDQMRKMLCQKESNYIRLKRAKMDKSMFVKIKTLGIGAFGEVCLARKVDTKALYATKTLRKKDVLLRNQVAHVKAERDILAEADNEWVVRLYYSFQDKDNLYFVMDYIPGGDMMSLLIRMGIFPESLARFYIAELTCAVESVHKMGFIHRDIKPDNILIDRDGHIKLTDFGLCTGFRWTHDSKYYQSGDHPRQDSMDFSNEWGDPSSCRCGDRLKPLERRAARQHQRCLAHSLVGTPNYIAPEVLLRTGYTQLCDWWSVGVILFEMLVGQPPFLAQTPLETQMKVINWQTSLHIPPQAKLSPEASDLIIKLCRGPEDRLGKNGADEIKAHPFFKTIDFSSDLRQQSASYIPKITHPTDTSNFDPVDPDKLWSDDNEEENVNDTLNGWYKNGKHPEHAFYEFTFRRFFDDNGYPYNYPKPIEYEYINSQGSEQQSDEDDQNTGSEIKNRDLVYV
The test can be described thus: Inhibition of LATS1 conserved Lys1 (ALYATKTLR) in human PBMC at 1 uM.

Test [6] addresses T1, Inhibitor of nuclear factor kappa-B kinase subunit epsilon (Homo sapiens). The test can be described thus: Inhibition of IKKe conserved Lys2 (DIKPGNIMR) in human PBMC at 0.1 uM.
Test [7] has as its target Mitogen-activated protein kinase 13 (Homo sapiens) (UniProt O15264). The test can be described thus: Inhibition of p38d conserved Lys2 (DLKPGNLAVNEDCELK) in human PBMC at 0.1 uM.
Test [8] deals with Serine/threonine-protein kinase WNK1 (Homo sapiens) (UniProt Q9H4A3). The test can be described thus: Inhibition of Wnk1 activation Loop (IGDLGLATLKR) in human PBMC at 0.1 uM. Conditions: pooled result: one value given for 4 cell lines, strains, targets or settings.
Test [9] has as its target Calcium/calmodulin-dependent protein kinase type II subunit gamma (Homo sapiens) (UniProt Q13555). The test can be described thus: Inhibition of CaMK2g labeling at conserved Lys1 (TSTQEYAAKIINTK) in human PBMC at 0.1 uM.
Test [10] has as its target Eukaryotic elongation factor 2 kinase (Homo sapiens) (UniProt O00418). The test can be described thus: Inhibition of eEF2K ATP binding site (YIKYNSNSGFVR) in human PBMC at 1 uM.

Chain of Calcium/calmodulin-dependent protein kinase type II subunit gamma (Homo sapiens) (Q13555 whole entry): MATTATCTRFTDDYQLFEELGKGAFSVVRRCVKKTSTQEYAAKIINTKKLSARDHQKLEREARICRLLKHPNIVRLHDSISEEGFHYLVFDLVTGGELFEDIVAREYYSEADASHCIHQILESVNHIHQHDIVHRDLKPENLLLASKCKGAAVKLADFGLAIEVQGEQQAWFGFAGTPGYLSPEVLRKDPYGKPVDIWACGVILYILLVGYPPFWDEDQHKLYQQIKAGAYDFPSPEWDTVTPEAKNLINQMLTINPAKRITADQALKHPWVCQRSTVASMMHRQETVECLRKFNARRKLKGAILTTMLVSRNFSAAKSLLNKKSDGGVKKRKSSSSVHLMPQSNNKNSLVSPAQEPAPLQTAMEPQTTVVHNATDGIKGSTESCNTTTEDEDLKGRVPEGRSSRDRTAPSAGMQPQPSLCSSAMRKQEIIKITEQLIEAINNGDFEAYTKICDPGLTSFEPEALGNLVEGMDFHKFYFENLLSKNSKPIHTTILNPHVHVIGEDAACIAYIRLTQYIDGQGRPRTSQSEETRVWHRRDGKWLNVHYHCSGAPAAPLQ
Chain of Serine/threonine-protein kinase SIK2 (Homo sapiens) (Q9H0K1 whole entry, looked up): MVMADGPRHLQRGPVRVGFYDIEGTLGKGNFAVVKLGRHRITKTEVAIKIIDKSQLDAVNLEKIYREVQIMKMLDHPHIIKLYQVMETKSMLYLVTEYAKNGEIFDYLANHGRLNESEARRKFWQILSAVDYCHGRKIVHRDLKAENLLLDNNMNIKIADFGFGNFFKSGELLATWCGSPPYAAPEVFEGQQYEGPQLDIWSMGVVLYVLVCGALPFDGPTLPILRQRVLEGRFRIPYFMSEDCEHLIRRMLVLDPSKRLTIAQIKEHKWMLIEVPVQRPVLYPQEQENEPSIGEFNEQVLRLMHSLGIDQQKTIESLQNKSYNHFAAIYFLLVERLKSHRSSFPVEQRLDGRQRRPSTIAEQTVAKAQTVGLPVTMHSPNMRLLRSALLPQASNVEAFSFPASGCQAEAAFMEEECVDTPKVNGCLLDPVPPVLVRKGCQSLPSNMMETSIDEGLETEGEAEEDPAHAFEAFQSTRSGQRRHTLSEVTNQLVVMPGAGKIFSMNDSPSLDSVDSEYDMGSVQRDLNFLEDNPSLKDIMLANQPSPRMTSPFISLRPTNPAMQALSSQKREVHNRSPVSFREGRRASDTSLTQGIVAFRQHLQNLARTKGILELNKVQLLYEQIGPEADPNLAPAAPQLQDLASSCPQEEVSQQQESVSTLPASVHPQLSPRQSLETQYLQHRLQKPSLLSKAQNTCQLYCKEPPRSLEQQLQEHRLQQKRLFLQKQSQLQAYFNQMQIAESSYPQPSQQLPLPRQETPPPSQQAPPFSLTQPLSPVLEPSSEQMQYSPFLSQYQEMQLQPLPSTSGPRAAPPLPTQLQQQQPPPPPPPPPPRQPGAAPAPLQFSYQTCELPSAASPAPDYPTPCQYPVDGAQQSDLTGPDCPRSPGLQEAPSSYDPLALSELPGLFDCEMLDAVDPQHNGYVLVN
Chain of Serine/threonine-protein kinase WNK1 (Homo sapiens) (Q9H4A3 whole entry, looked up): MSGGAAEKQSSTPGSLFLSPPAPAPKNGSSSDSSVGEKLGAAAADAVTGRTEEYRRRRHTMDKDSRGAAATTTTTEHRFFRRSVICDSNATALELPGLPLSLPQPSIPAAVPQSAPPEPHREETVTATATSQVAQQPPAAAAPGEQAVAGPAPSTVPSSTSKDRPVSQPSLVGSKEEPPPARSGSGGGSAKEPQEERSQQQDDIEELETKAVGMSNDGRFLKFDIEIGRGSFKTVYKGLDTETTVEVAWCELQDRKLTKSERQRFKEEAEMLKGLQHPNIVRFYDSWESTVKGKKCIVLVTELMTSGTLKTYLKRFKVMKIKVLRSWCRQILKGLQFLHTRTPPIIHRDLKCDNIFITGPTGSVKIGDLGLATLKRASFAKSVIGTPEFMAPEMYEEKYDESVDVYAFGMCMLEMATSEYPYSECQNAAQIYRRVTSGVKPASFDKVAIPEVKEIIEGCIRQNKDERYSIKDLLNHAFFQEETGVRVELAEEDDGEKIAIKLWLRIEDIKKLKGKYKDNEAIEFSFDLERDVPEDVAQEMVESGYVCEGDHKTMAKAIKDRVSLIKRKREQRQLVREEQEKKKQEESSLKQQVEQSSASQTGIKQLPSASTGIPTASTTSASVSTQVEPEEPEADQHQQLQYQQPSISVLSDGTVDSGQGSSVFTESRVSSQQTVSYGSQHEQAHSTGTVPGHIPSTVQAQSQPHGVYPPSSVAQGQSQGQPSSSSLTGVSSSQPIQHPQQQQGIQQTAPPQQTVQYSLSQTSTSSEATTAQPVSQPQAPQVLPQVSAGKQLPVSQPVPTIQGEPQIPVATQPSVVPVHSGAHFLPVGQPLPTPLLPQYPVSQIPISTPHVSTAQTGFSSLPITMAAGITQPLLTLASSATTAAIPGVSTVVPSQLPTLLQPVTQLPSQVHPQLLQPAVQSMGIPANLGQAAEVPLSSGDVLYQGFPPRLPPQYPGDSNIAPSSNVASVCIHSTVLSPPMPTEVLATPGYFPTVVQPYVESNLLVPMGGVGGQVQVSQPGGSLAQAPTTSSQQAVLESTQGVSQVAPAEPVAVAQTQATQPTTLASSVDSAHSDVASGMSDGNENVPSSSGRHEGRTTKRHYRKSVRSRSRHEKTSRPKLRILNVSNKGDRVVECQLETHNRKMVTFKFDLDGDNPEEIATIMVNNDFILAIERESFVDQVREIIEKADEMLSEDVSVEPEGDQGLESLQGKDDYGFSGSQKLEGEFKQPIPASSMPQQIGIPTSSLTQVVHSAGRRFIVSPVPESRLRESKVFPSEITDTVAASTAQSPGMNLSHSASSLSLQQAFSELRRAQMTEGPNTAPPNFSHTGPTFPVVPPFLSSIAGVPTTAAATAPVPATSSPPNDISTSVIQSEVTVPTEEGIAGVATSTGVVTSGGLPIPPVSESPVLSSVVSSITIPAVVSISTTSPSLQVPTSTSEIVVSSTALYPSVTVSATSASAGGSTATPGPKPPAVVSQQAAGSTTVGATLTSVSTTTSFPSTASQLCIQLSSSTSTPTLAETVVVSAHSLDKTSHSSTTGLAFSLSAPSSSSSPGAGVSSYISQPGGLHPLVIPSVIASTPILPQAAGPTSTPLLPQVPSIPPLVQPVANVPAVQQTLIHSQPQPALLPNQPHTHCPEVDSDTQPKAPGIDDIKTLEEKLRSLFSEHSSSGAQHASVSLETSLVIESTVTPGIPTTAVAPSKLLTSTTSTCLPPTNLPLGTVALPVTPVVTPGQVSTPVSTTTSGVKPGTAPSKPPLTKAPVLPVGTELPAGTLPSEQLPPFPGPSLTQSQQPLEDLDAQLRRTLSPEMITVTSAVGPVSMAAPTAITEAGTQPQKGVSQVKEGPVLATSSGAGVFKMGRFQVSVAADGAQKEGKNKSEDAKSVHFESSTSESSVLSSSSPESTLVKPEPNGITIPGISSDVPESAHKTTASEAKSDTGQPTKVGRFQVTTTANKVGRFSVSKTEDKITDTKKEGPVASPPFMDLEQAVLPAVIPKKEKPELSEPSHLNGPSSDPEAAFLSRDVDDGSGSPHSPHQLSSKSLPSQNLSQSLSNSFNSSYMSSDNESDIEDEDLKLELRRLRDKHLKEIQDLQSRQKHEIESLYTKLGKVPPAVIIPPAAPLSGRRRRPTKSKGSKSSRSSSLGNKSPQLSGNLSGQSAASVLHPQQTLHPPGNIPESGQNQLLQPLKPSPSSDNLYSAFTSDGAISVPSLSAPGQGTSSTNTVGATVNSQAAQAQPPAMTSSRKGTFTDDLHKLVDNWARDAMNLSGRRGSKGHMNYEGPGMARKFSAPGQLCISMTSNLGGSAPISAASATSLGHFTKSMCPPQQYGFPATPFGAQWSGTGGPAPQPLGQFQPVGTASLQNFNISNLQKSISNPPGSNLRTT
Chain of Ribosomal protein S6 kinase alpha-1 (Homo sapiens) (Q15418 whole entry, the tested form may be a part): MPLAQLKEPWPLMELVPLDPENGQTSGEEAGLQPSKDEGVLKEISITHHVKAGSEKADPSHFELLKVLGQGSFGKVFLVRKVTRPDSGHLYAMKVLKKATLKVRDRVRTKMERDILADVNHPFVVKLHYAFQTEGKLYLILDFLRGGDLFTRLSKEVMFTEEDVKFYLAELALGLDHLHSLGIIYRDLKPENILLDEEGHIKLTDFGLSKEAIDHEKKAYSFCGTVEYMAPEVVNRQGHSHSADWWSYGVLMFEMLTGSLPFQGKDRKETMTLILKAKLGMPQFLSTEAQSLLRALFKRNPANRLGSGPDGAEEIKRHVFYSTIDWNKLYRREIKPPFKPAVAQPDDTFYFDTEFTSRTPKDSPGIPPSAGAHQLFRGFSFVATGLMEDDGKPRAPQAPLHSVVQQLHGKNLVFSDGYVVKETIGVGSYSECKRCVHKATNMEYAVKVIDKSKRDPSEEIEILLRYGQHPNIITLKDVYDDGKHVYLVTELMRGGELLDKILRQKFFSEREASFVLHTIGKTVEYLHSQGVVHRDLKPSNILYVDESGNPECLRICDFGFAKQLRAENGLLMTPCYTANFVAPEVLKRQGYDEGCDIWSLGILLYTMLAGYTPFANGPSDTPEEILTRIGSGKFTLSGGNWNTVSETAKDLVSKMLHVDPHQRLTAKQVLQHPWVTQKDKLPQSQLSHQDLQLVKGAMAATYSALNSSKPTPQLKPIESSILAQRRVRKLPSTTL
Chain of Mitogen-activated protein kinase 13 (Homo sapiens) (O15264 whole entry): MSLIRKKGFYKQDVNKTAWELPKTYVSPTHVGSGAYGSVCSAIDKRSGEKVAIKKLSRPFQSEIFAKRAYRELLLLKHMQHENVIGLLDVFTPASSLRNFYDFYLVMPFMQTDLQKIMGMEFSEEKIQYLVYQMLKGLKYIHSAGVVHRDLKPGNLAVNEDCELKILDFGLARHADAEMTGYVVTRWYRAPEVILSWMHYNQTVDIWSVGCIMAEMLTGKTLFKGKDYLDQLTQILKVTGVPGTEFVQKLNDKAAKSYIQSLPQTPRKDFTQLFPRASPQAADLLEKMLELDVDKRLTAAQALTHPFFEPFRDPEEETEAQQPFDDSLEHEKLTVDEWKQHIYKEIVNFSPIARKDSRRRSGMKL

What is called inhibition is the change of the read-out against control, counted positive when it falls. `CC(C)n1cc(-c2cc(-c3ccc(CN4CCOCC4)cc3)cnc2N)nn1`: the inhibition in test [1] was 11%; in test [2], 5%; in test [3], -6%; in test [4], -6.7%; in [5], 30.1%; in [6], 21.7%. Also, the inhibition in [7] was 26.4%; in [8], 21.4%; in test [9], -4.5%; in test [10] it was -6.7%.
